Literature values in US11033601B2, “Selective inhibition of V1b for treating fatty liver” (The Regents of the University of Colorado, priority 2017, dated 2021).

Target: V2 receptors (Homo sapiens, UniProt P30518)
Sequence (P30518 whole entry): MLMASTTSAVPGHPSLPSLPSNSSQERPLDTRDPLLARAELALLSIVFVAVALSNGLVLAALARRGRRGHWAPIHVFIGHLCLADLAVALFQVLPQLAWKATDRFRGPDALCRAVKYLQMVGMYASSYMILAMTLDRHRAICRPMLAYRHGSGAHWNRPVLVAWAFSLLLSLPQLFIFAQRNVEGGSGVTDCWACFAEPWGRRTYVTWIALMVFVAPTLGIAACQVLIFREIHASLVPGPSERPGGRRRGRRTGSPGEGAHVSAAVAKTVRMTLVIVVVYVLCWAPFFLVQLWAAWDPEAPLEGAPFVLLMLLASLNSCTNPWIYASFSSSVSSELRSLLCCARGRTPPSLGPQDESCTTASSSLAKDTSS

effects on V2 receptors: little effects
SMILES: COc1ccc(S(=O)(=O)N2C(=O)[C@@](c3ccccc3OC)(N3C[C@H](O)C[C@H]3C(=O)N(C)C)c3cc(Cl)ccc32)c(OC)c1 [Nelivaptan]
